Our source for the IC50 values is ChEMBL document CHEMBL1641408, “Two dimeric lignans with an unusual α,β-unsaturated ketone motif from Zanthoxylum podocarpum and their inhibitory effects on nitric oxide production” (Bioorg Med Chem Lett, 2011).

In the assay the test system is RAW264.7. Description: Antiinflammatory activity in mouse RAW264.7 cells assessed as inhibition of LPS-induced nitric oxide production after 18 hrs by Griess reagent method. In kind it is functional, cell-based. To be noted: RAW264.7, 18 h.

In the case of `COc1cc([C@@H]2OC[C@@H]3[C@H]2CO[C@@H]3c2ccc(OC34OCOC3=CC(=O)[C@@H]([C@@H]3OC[C@H]5[C@@H]3CO[C@H]5c3ccc(OC)c(OC)c3)[C@@H]4O)c(OC)c2)ccc1O` (some centres not stated) [ZANTHPODOCARPIN B], the IC50 came out at 12.2 µM.
`COc1ccc([C@@H]2OC[C@@H]3[C@H]2CO[C@H]3[C@@H]2C(=O)C=C3OCOC3(Oc3ccc([C@H]4OC[C@@H]5[C@H]4CO[C@H]5c4ccc5c(c4)OCO5)cc3OC)[C@H]2O)cc1OC` (some centres not stated) [ZANTHPODOCARPINS A]: the IC50 was determined as 5.31 µM.
